Assay results published in the supplement of paper PMC10307832.

What was measured:
Experiment in all cases: relative viability (nuclei count vs DMSO), 5 days (fraction); higher = more cells survive
[1] = compound: C1=CC=C(C(=C1)C2=CC=C(C=C2)C3=CSC4=C3C(=C(C(=O)N4)C#N)O)O + Nc1nc2[nH]cc(CCc3ccc(C(=O)N[C@@H](CCC(=O)O)C(=O)O)cc3)c2c(=O)[nH]1 [Pemetrexed] (partner 0.2 µM)
Procedure, shortened: (§1)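 Lung cancer cell lines in 1536-well plates were dosed by pin tool the day after seeding, either with one drug alone or with a fixed anchor-drug dose plus five library-drug doses (not always all listed) in √10 steps. After 5 days, cells were fixed and their nuclei stained in one step (final 0.05% Triton X-100, 1% formaldehyde, 1 ug/ml Hoechst), then counted on 4× images. Relative viability is the nuclei count in treated wells divided by that in vehicle wells. Values are medians of duplicate plates.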

[2] = compound: O=C(CCCCCCNC(=O)c1cnc(N(c2ccccc2)c2ccccc2)nc1)NO [Ricolinostat] + COc1cccc2cc(-c3nc([C@H]4CC[C@H](C(=O)O)CC4)n4ncnc(N)c34)[nH]c12 [OSI-027] (partner 0.5 µM)
Procedure, shortened: as §1

[3] = compound: CC1=CN2C(=O)C=C(N=C2C(=C1)C(C)NC3=CC=CC=C3)N4CCOCC4 [TGX 221] + COc1cc2c(Oc3ccc(NC(=O)C4(C(=O)Nc5ccc(F)cc5)CC4)cc3F)ccnc2cc1OCCCN1CCOCC1 [Foretinib] (partner 0.25 µM)
Procedure, shortened: as §1

[4] = compound: C1=CC=C(C(=C1)C2=CC=C(C=C2)C3=CSC4=C3C(=C(C(=O)N4)C#N)O)O + CCNC(=O)c1noc(-c2cc(C(C)C)c(O)cc2O)c1-c1ccc(CN2CCOCC2)cc1 [Luminespib] (partner 0.01 µM)
Procedure, shortened: as §1

Cell Line	relative viability ([1]; first compound 0.08 µM)	relative viability ([1]; first compound 0.253 µM)	relative viability ([1]; first compound 0.8 µM)	relative viability ([1]; first compound 2.53 µM)	relative viability ([1]; first compound 8 µM)	relative viability ([2]; first compound 0.08 µM)	relative viability ([2]; first compound 0.253 µM)	relative viability ([2]; first compound 0.8 µM)	relative viability ([2]; first compound 2.53 µM)	relative viability ([3]; first compound 0.08 µM)	relative viability ([3]; first compound 0.253 µM)	relative viability ([3]; first compound 0.8 µM)	relative viability ([3]; first compound 2.53 µM)	relative viability ([3]; first compound 8 µM)	relative viability ([4]; first compound 0.08 µM)	relative viability ([4]; first compound 0.253 µM)	relative viability ([4]; first compound 0.8 µM)	relative viability ([4]; first compound 2.53 µM)	relative viability ([4]; first compound 8 µM)
201T	0.354	0.331	0.358	0.353	0.298	0.631	0.707	0.7	0.92	1.22	1.09	1.13	0.931	0.817	0.873	0.981	1.03	1.09	1.08
A549										1.05	0.917	0.997	1.06	0.801					
A-427	0.941	1.11	1.03	1.01	0.989		0.435	0.414	0.351	1.15	0.987	1.12	1.05	1.06	0.735	1.37	0.916	1.06	0.927
ABC-1						0.425	0.518	0.482	0.292	1.1	0.806	0.817	1.1	0.835	0.509	0.768	0.78	0.481	0.513
BEN	0.694	0.786	0.761	0.857	0.761	0.287	0.344	0.324	0.307	0.667	0.58	0.748	0.624	0.606	0.354	0.345	0.305	0.71	0.331
CAL-12T	0.958	1.23	1.24	1.43	1.33	0.412	0.717	0.617	0.715	0.994	1.12	1.27	1.15	1.09	0.296	0.565	0.362	0.585	0.264
COR-L23	0.222	0.228	0.212	0.189	0.19	0.595	0.756	0.789	0.409	0.889	0.912	1.04	0.964	0.938	0.524	0.745	0.714	0.773	0.52
COR-L 105	0.948	1.16	1.1	1.11	1.15		0.641	0.72	0.731	0.993	0.976	0.99	0.825	0.781	0.881	0.821	0.722	0.625	0.752
Calu-6										0.888	0.8	0.88	0.923	0.815					
ChaGo-K-1	0.271	0.257	0.256	0.251	0.256	0.656	0.606	0.539	0.471	0.989	0.871	0.926	0.827	0.876	0.706	0.628	0.684	0.597	0.604
EBC-1										0.0971	0.106	0.102	0.1	0.11					
EKVX	0.425	0.497	0.399	0.465	0.336	0.6	0.714		0.677	0.691	0.914	0.763	0.691	0.925	1.14	0.977	0.863	0.912	0.726
EMC-BAC-2	0.447	0.618	0.444	0.451	0.418	0.353	0.363	0.343	0.271	1.03	0.882	0.882	0.903	0.773	0.953	1.25	1.25	1.26	1.18
EPLC-272H	0.346	0.249	0.297	0.32	0.441	0.256	0.305	0.273	0.263	0.628	0.538	0.515	0.764	0.479	0.279	0.282	0.247	0.223	0.282
H3255	0.561	0.563	0.561	0.591	0.54	0.496	0.582	0.55	0.629	0.88	0.762	0.844	0.852	0.868	0.968	1.02	0.713	0.852	0.895
HARA	0.241	0.274	0.219	0.197	0.264	0.295	0.479	0.401	0.175	0.703	0.71	0.904	0.849	0.667	0.375	0.707	0.553	0.592	0.682
